{
  "source": "paper PMC5218480",
  "about": "(PLoS ONE, 2017)",
  "tested_on": "MV-4-11 cells",
  "test": "Gene expression microarray analysis (Affymetrix PrimeView) and GSEA",
  "assay_type": "cell-based, human",
  "set-up": "RFU PODN (11730768_x_at) / Fold change /veh PODN (11730768_x_at) / RFU LINC00158 (11744669_a_at) / Fold change /veh LINC00158 (11744669_a_at) / RFU DUSP10 (11751237_a_at) / Fold change /veh DUSP10 (11751237_a_at) / RFU ID3 (11757404_x_at) / Fold change /veh ID3 (11757404_x_at) / RFU PLEKHG5 (11737974_s_at) / Fold change /veh PLEKHG5 (11737974_s_at) / RFU LRRC4B (11730491_at) / Fold change /veh LRRC4B (11730491_at) / RFU GIMAP4 (11747438_a_at) / Fold change /veh GIMAP4 (11747438_a_at) / RFU KRT8 (11758183_x_at) / Fold change /veh KRT8 (11758183_x_at) / RFU CNN1 (11734310_a_at) / Fold change /veh CNN1 (11734310_a_at) / RFU VPS37D (11726825_at) / Fold change /veh VPS37D (11726825_at) / RFU C10orf10 (11716522_x_at) / Fold change /veh C10orf10 (11716522_x_at) / RFU KIR2DL2 /// KIR2DL4 /// KIR2DL5A /// KIR2DL5B /// KIR2DS1 /// KIR2DS2 /// KIR2DS3 /// KIR2DS4 /// KIR3DL3 /// KIR3DL3 /// KIR3DS1 (11738374_at) / Fold change /veh KIR2DL2 /// KIR2DL4 /// KIR2DL5A /// KIR2DL5B /// KIR2DS1 /// KIR2DS2 /// KIR2DS3 /// KIR2DS4 /// KIR3DL3 /// KIR3DL3 /// KIR3DS1 (11738374_at) / RFU C1QL1 (11718748_at) / Fold change /veh C1QL1 (11718748_at) / RFU TMPRSS4 (11747572_a_at) / Fold change /veh TMPRSS4 (11747572_a_at) / RFU HAMP (11756126_x_at) / Fold change /veh HAMP (11756126_x_at) / RFU RNFT2 (11725882_a_at) / Fold change /veh RNFT2 (11725882_a_at) / RFU NR4A2 (11747474_a_at) / Fold change /veh NR4A2 (11747474_a_at) / RFU ABCC12 (11746883_a_at) / Fold change /veh ABCC12 (11746883_a_at) / RFU TMEM136 (11760407_x_at) / Fold change /veh TMEM136 (11760407_x_at) / RFU CLDN22 /// WWC2 (11732394_at) / Fold change /veh CLDN22 /// WWC2 (11732394_at) / RFU HLA-DPB1 (11760878_x_at) / Fold change /veh HLA-DPB1 (11760878_x_at) / RFU SPINT1 (11716480_a_at) / Fold change /veh SPINT1 (11716480_a_at) / RFU GAP43 (11754022_s_at) / Fold change /veh GAP43 (11754022_s_at) / RFU A4GNT (11735810_at) / Fold change /veh A4GNT (11735810_at) / RFU PRB3 (11715151_x_at) / Fold change /veh PRB3 (11715151_x_at) / RFU TUBB4B (11761932_at) / Fold change /veh TUBB4B (11761932_at) / RFU CAPN14 (11732068_a_at) / Fold change /veh CAPN14 (11732068_a_at) / RFU TMCC2 (11721928_a_at) / Fold change /veh TMCC2 (11721928_a_at) / RFU IRGQ (11745062_a_at) / Fold change /veh IRGQ (11745062_a_at) / RFU FAM174B (11720279_a_at) / Fold change /veh FAM174B (11720279_a_at) / RFU TMPRSS4 (11748680_a_at) / Fold change /veh TMPRSS4 (11748680_a_at) / RFU FAM212B (11763350_a_at) / Fold change /veh FAM212B (11763350_a_at) / RFU PLEKHG5 (11743358_a_at) / Fold change /veh PLEKHG5 (11743358_a_at) / RFU ZSCAN30 (11745921_a_at) / Fold change /veh ZSCAN30 (11745921_a_at) / RFU CMKLR1 (11741424_a_at) / Fold change /veh CMKLR1 (11741424_a_at) / RFU LOC101060620 /// MAPK8IP1 (11723275_at) / Fold change /veh LOC101060620 /// MAPK8IP1 (11723275_at) / RFU SPTSSB (11747773_x_at) / Fold change /veh SPTSSB (11747773_x_at) / RFU PRSS12 (11739890_at) / Fold change /veh PRSS12 (11739890_at) / RFU BIN1 (11741810_x_at) / Fold change /veh BIN1 (11741810_x_at) / RFU WNT11 (11732464_a_at) / Fold change /veh WNT11 (11732464_a_at) / RFU C10orf10 (11716521_a_at) / Fold change /veh C10orf10 (11716521_a_at) / RFU C5orf56 (11738089_at) / Fold change /veh C5orf56 (11738089_at) / RFU CYB561 (11721691_x_at) / Fold change /veh CYB561 (11721691_x_at) / RFU ANKRD19P (11752326_a_at) / Fold change /veh ANKRD19P (11752326_a_at) / RFU OR2T12 /// OR2T33 /// OR2T8 (11738714_s_at) / Fold change /veh OR2T12 /// OR2T33 /// OR2T8 (11738714_s_at) / RFU VCAN (11748164_a_at) / Fold change /veh VCAN (11748164_a_at) / RFU JSRP1 (11732532_at) / Fold change /veh JSRP1 (11732532_at) / RFU KRTAP10-11 (11738290_x_at) / Fold change /veh KRTAP10-11 (11738290_x_at) / RFU MYO3A (11730013_a_at) / Fold change /veh MYO3A (11730013_a_at) / RFU EBF3 (11725865_a_at) / Fold change /veh EBF3 (11725865_a_at) / RFU CAMK2N1 (11719241_x_at) / Fold change /veh CAMK2N1 (11719241_x_at) / RFU C5orf56 (11738088_a_at) / Fold change /veh C5orf56 (11738088_a_at) / RFU OLFML3 (11715873_a_at) / Fold change /veh OLFML3 (11715873_a_at) / RFU LOC100653217 /// NTM (11731650_a_at) / Fold change /veh LOC100653217 /// NTM (11731650_a_at) / RFU MAPK11 (11762145_a_at) / Fold change /veh MAPK11 (11762145_a_at) / RFU FIZ1 (11724087_x_at) / Fold change /veh FIZ1 (11724087_x_at) / RFU OASL (11726364_x_at) / Fold change /veh OASL (11726364_x_at) / RFU SOX15 (11748057_x_at) / Fold change /veh SOX15 (11748057_x_at) / RFU CD79A (11719716_a_at) / Fold change /veh CD79A (11719716_a_at) / RFU HIST1H1D (11736915_at) / Fold change /veh HIST1H1D (11736915_at) / RFU CASKIN2 (11723855_a_at) / Fold change /veh CASKIN2 (11723855_a_at) / RFU LOC730098 (11760151_x_at) / Fold change /veh LOC730098 (11760151_x_at) / RFU OR4N2 (11742367_at) / Fold change /veh OR4N2 (11742367_at) / RFU PRRT2 (11749266_a_at) / Fold change /veh PRRT2 (11749266_a_at) / RFU SNX32 (11753110_a_at) / Fold change /veh SNX32 (11753110_a_at) / RFU CDHR5 (11726645_a_at) / Fold change /veh CDHR5 (11726645_a_at) / RFU RCAN1 (11760418_a_at) / Fold change /veh RCAN1 (11760418_a_at) / RFU FAM167A (11723789_a_at) / Fold change /veh FAM167A (11723789_a_at) / RFU FAM26E (11764081_at) / Fold change /veh FAM26E (11764081_at) / RFU ISYNA1 (11749810_s_at) / Fold change /veh ISYNA1 (11749810_s_at) / RFU ACY1 (11761880_at) / Fold change /veh ACY1 (11761880_at) / RFU 11764098_at / Fold change /veh 11764098_at / RFU SAMD14 (11745864_x_at) / Fold change /veh SAMD14 (11745864_x_at) / RFU NPB (11741838_a_at) / Fold change /veh NPB (11741838_a_at) / RFU TMPRSS6 (11731388_a_at) / Fold change /veh TMPRSS6 (11731388_a_at) / RFU KRTAP10-2 (11738614_at) / Fold change /veh KRTAP10-2 (11738614_at) / RFU ARHGAP8 /// PRR5-ARHGAP8 (11727945_x_at) / Fold change /veh ARHGAP8 /// PRR5-ARHGAP8 (11727945_x_at) / RFU KRTAP5-7 /// NADSYN1 (11734609_at) / Fold change /veh KRTAP5-7 /// NADSYN1 (11734609_at) / RFU RASL12 (11751679_a_at) / Fold change /veh RASL12 (11751679_a_at) / RFU CDKN2B (11736163_a_at) / Fold change /veh CDKN2B (11736163_a_at) / RFU PRF1 (11729649_at) / Fold change /veh PRF1 (11729649_at) / RFU, ZNF638 /// ZNF638-IT1 / Fold change vs veh, ZNF638 /// ZNF638-IT1 / RFU, PANK3 / Fold change vs veh, PANK3 / RFU, SH3YL1 / Fold change vs veh, SH3YL1 / RFU, ZEB2 / Fold change vs veh, ZEB2 / RFU, NRIP1 / Fold change vs veh, NRIP1 / RFU, PTTG1IP / Fold change vs veh, PTTG1IP / RFU, CAPN2 / Fold change vs veh, CAPN2 / RFU, MED14 / Fold change vs veh, MED14 / RFU, SNORA58 / Fold change vs veh, SNORA58 / RFU, C1orf63 / Fold change vs veh, C1orf63 / RFU, LRRFIP1 / Fold change vs veh, LRRFIP1 / RFU, NDUFAF7 / Fold change vs veh, NDUFAF7 / RFU, SLC12A2 / Fold change vs veh, SLC12A2 / RFU, IBTK / Fold change vs veh, IBTK / RFU, ESF1 / Fold change vs veh, ESF1 / Fold change vs veh, TMEM50B / RFU, TAOK1 / Fold change vs veh, TAOK1 / RFU, ACBD3 / Fold change vs veh, ACBD3 / RFU, TMA16 / Fold change vs veh, TMA16 / RFU, RWDD3 / Fold change vs veh, RWDD3 / RFU, BCAT1 / Fold change vs veh, BCAT1 / RFU, EDEM3 / Fold change vs veh, EDEM3 / RFU, TMEM33 / Fold change vs veh, TMEM33 / RFU, WDR75 / Fold change vs veh, WDR75 / RFU, AHCTF1 / Fold change vs veh, AHCTF1 / RFU, TFRC / Fold change vs veh, TFRC / RFU, ZDHHC17 / Fold change vs veh, ZDHHC17 / RFU, NOM1 / Fold change vs veh, NOM1 / RFU, ARL8B / Fold change vs veh, ARL8B / RFU, ZBTB11 / Fold change vs veh, ZBTB11 / RFU, TAMM41 / Fold change vs veh, TAMM41 / RFU, KIAA1704 /// LOC100996395 / Fold change vs veh, KIAA1704 /// LOC100996395 / RFU, ING1 / Fold change vs veh, ING1 / RFU, TRMT61B / Fold change vs veh, TRMT61B / RFU, FUBP3 / Fold change vs veh, FUBP3 / RFU, TP53 / Fold change vs veh, TP53 / RFU, TNKS2 / Fold change vs veh, TNKS2 / RFU, ZFP14 / Fold change vs veh, ZFP14 / RFU, ACTR2 / Fold change vs veh, ACTR2 / RFU, PPP3R1 / Fold change vs veh, PPP3R1 / RFU, PIK3R1 / Fold change vs veh, PIK3R1 / RFU, HNRNPA1 / Fold change vs veh, HNRNPA1 / RFU, RNF170 / Fold change vs veh, RNF170 / RFU, ZNF28 / Fold change vs veh, ZNF28 / RFU, RNGTT / Fold change vs veh, RNGTT / RFU, OGT / Fold change vs veh, OGT / RFU, BRD1 / Fold change vs veh, BRD1 / RFU, MARS / Fold change vs veh, MARS / RFU, ZNF655 / Fold change vs veh, ZNF655 / RFU, FAHD1 / Fold change vs veh, FAHD1 / RFU, BDP1 / Fold change vs veh, BDP1 / RFU, LRRCC1 / Fold change vs veh, LRRCC1 / RFU, ARID1A / Fold change vs veh, ARID1A / RFU, ZNF146 / Fold change vs veh, ZNF146 / RFU, ZNF330 / Fold change vs veh, ZNF330 / RFU, GPN3 / Fold change vs veh, GPN3 / RFU, C9orf123 / Fold change vs veh, C9orf123 / RFU, N4BP2L2 / Fold change vs veh, N4BP2L2 / RFU, ARFIP1 / Fold change vs veh, ARFIP1 / RFU, FAM179B / Fold change vs veh, FAM179B / RFU, BCL10 / Fold change vs veh, BCL10 / RFU, UHRF1BP1L / Fold change vs veh, UHRF1BP1L / RFU, BET1 / Fold change vs veh, BET1 / RFU, CNOT2 / Fold change vs veh, CNOT2 / RFU, ZNF268 / Fold change vs veh, ZNF268 / Fold change vs veh, ZNF507 / RFU, DGCR2 / Fold change vs veh, DGCR2 / RFU, WDSUB1 / Fold change vs veh, WDSUB1 / Fold change vs veh, HSP90B1 /// MIR3652 / RFU, ADSS / Fold change vs veh, ADSS / RFU, GK / Fold change vs veh, GK / RFU, ZNF148 / Fold change vs veh, ZNF148 / RFU, TAF9 / Fold change vs veh, TAF9 / RFU, SLC1A5 / Fold change vs veh, SLC1A5 / RFU, SLMO2 / Fold change vs veh, SLMO2 / RFU, ABCC4 / Fold change vs veh, ABCC4 / RFU, LOC101060439 /// RAP1B / Fold change vs veh, LOC101060439 /// RAP1B / RFU, RFX7 / Fold change vs veh, RFX7 / RFU, GTPBP10 / Fold change vs veh, GTPBP10 / RFU, CNEP1R1 / Fold change vs veh, CNEP1R1 / RFU, BIVM-ERCC5 /// ERCC5 / Fold change vs veh, BIVM-ERCC5 /// ERCC5 / RFU, ILF3 / Fold change vs veh, ILF3 / RFU 11762660_at / Fold change /veh 11762660_at / RFU VCAN (11757783_s_at) / Fold change /veh VCAN (11757783_s_at) / RFU DDX43 (11728927_at) / Fold change /veh DDX43 (11728927_at) / RFU KRT8 (11758188_x_at) / Fold change /veh KRT8 (11758188_x_at) / RFU NKD1 (11759106_at) / Fold change /veh NKD1 (11759106_at) / RFU SRD5A1 (11742802_a_at) / Fold change /veh SRD5A1 (11742802_a_at) / RFU TPSAB1 /// TPSB2 (11721975_s_at) / Fold change /veh TPSAB1 /// TPSB2 (11721975_s_at) / RFU GSTM3 (11746129_a_at) / Fold change /veh GSTM3 (11746129_a_at) / RFU IL23R (11737362_x_at) / Fold change /veh IL23R (11737362_x_at) / RFU TMEM51 (11727254_a_at) / Fold change /veh TMEM51 (11727254_a_at) / RFU PIWIL2 (11732686_x_at) / Fold change /veh PIWIL2 (11732686_x_at) / RFU ORM1 (11744905_x_at) / Fold change /veh ORM1 (11744905_x_at) / RFU CCDC152 (11743942_at) / Fold change /veh CCDC152 (11743942_at) / RFU ECM1 (11717891_a_at) / Fold change /veh ECM1 (11717891_a_at) / RFU IL23R (11748794_a_at) / Fold change /veh IL23R (11748794_a_at) / RFU TNFAIP8L3 (11732012_x_at) / Fold change /veh TNFAIP8L3 (11732012_x_at) / RFU MBOAT4 (11741988_at) / Fold change /veh MBOAT4 (11741988_at) / RFU 11764193_at / Fold change /veh 11764193_at / RFU TMEM53 (11763286_at) / Fold change /veh TMEM53 (11763286_at) / RFU MAGEB2 (11727129_at) / Fold change /veh MAGEB2 (11727129_at) / RFU TMEM200A (11744735_a_at) / Fold change /veh TMEM200A (11744735_a_at) / RFU CCDC152 (11751479_a_at) / Fold change /veh CCDC152 (11751479_a_at) / RFU FAM211A (11726209_a_at) / Fold change /veh FAM211A (11726209_a_at) / RFU RGS16 (11746705_a_at) / Fold change /veh RGS16 (11746705_a_at) / RFU VCAN (11755009_s_at) / Fold change /veh VCAN (11755009_s_at) / RFU RHOB (11743442_s_at) / Fold change /veh RHOB (11743442_s_at) / RFU RGS16 (11720943_a_at) / Fold change /veh RGS16 (11720943_a_at) / RFU RGS16 (11720944_at) / Fold change /veh RGS16 (11720944_at) / RFU, VPS4B / Fold change vs veh, VPS4B / RFU, CREB1 / Fold change vs veh, CREB1 / RFU, DNAJC13 / Fold change vs veh, DNAJC13 / RFU, GNAQ / Fold change vs veh, GNAQ / RFU, CDK5R1 / Fold change vs veh, CDK5R1 / RFU, ZRANB3 / Fold change vs veh, ZRANB3 / RFU, CUL4A / Fold change vs veh, CUL4A / RFU, CCNY / Fold change vs veh, CCNY / RFU, UFL1 / Fold change vs veh, UFL1 / RFU, COG3 / Fold change vs veh, COG3 / RFU, DIAPH2 / Fold change vs veh, DIAPH2 / RFU, SKA2 / Fold change vs veh, SKA2 / RFU, AFF3 / Fold change vs veh, AFF3 / RFU, LMF1 / Fold change vs veh, LMF1 / RFU, IPO11 / Fold change vs veh, IPO11 / RFU, DFFB / Fold change vs veh, DFFB / RFU, FOXP1 / Fold change vs veh, FOXP1 / RFU, CARD8 / Fold change vs veh, CARD8 / RFU, STRN3 / Fold change vs veh, STRN3 / RFU, ADK / Fold change vs veh, ADK / RFU, RASSF2 / Fold change vs veh, RASSF2 / RFU, WIPF1 / Fold change vs veh, WIPF1 / RFU, LARP1B / Fold change vs veh, LARP1B / RFU, RASA1 / Fold change vs veh, RASA1 / RFU, RB1 / Fold change vs veh, RB1 / RFU, PPFIA1 / Fold change vs veh, PPFIA1 / RFU, MAT2A / Fold change vs veh, MAT2A / RFU, CCT5 / Fold change vs veh, CCT5 / RFU, WDR92 / Fold change vs veh, WDR92 / RFU, CUX1 / Fold change vs veh, CUX1 / RFU, TTC7A / Fold change vs veh, TTC7A / RFU, TMEM135 / Fold change vs veh, TMEM135 / RFU, DEPTOR / Fold change vs veh, DEPTOR / RFU, CPM / Fold change vs veh, CPM / RFU, DNAJB6 / Fold change vs veh, DNAJB6 / RFU, CACNA2D3 / Fold change vs veh, CACNA2D3 / RFU, DTX4 / Fold change vs veh, DTX4 / RFU, TFCP2 / Fold change vs veh, TFCP2 / RFU, GMCL1 /// GMCL1P1 / Fold change vs veh, GMCL1 /// GMCL1P1 / RFU, AEBP2 / Fold change vs veh, AEBP2 / RFU, SNHG1 /// SNORD22 /// SNORD25 /// SNORD26 /// SNORD27 /// SNORD28 /// SNORD29 /// SNORD31 / Fold change vs veh, SNHG1 /// SNORD22 /// SNORD25 /// SNORD26 /// SNORD27 /// SNORD28 /// SNORD29 /// SNORD31 / Fold change (Aza/veh), C12orf56 (ProbeSet 11735607_a_at) / Fold change (ACY-1035/veh), C12orf56 (ProbeSet 11735607_a_at) / Fold change (Aza/veh), FGFR1OP (ProbeSet 11751329_s_at) / Fold change (ACY-1035/veh), FGFR1OP (ProbeSet 11751329_s_at) / Fold change (Aza/veh), VPS36 (ProbeSet 11739960_a_at) / Fold change (ACY-1035/veh), VPS36 (ProbeSet 11739960_a_at) / RFU SYPL1 (11715823_x_at) / Fold change /veh SYPL1 (11715823_x_at) / RFU IGFBP7 (11715501_s_at) / Fold change /veh IGFBP7 (11715501_s_at) / RFU REEP3 (11722064_at) / Fold change /veh REEP3 (11722064_at) / RFU IGLL1 (11728026_x_at) / Fold change /veh IGLL1 (11728026_x_at): dose or concentration left out as unconfirmed",
  "conditions": "ProbeSet 11716865_a_at; LIST B",
  "data": [
    {"smiles": "Nc1ncn([C@@H]2O[C@H](CO)[C@@H](O)[C@H]2O)c(=O)n1", "note": "[azacitidine]", "values": [
      {"measurement": "Fold change vs veh, SLC1A5", "result": 0.87}
    ]}
  ]
}
